Earlier results in patent publication US12023406B2, “Gastric residence systems with release rate-modulating films” (Lyndra Therapeutics, Inc., priority 2017, dated 2024).

Conditions: gastric pH range

Cc1nc2n(c(=O)c1CCN1CCC(c3noc4cc(F)ccc34)CC1)CCCC2 [risperidone]
solubility at pH 1.5 versus pH 4.8: significantly higher at the more acidic end of the gastric pH range
